Assay results published in patent publication US20260132128A1, “COMPOUND FOR RECOVERING P53 MUTATION FUNCTION AND USE THEREOF” (SHENZHEN ZHONGGE BIOLOGICAL TECHNOLOGY CO., LTD., priority 2022, published 2026).
Read-outs that look alike come from different tables or passages of the source. Marks after values point to notes of the source that are not given here.

Tests used:
Caco-2 cells = assay: Caco-2 cell permeability test; assay type: in vitro ADME; conditions: Caco-2, 10 μM, 120 min
Protocol: Caco-2 cells (ATCC, Cat. No. HTB-37) were inoculated to a 96-well plate (Corning HTS Transwell, Cat. No. 3391) at 1.25×10^5/cm2, and the culture medium (DMEM+10% FBS+1% Penicillin-Streptomycin Liquid (100×)+1% NEAA) was replaced every 3 to 4 days. The plate was placed in an incubator at 37° C. with 5% CO2 until a confluent cell monolayer was formed after 21 to 28 days. Before the transport experiment, the culture medium was removed from the cell culture plate, and the plate was washed twice with pre-warmed HBSS buffer (10 mM HEPES, pH 7.4), and 100 μL of HBSS buffer was added to each well. After incubation at 37° C. for 30 minutes, the TEER value was measured using a cell resistance meter (Millicell-ERS2) to confirm the integrity and density of the monolayer cells. The HBSS buffer was discarded, the upper plate containing the cell monolayer membrane was transferred to the corresponding receiving plate, 10 mM test compound stock solution was diluted to a concentration of 10 μM with HBSS transport buffer containing 0.5% BSA, and it was added to the apical side (A side) and basolateral side (B side), respectively. Incubation was carried out for 120 min at 37° C., 5% CO2, and 95% relative humidity, and the permeation of the test compound from A side to B side or from B side to A side and the efflux rate of the compound were determined. The test compound and the reference compound were quantified by LC-MS/MS analysis based on the peak area ratio of analyte/internal standard. The apparent permeability coefficient Papp (cm/s) was calculated using the following formula:
[formula] • wherein, dCr/dt represented the functional relation between cumulative concentration of compound in receptor compartment and time; V represented the volume of solution in receptor compartment (0.1 mL at apical side, and 0.25 mL at basolateral side); A represented the transport surface area, i.e., the monolayer cell area was 0.0804 cm^2; CO represented the initial concentration of compound in donor compartment.
The efflux ratio was calculated using the following formula: […]
The percent recovery was calculated using the following formula:
[formula] [formula] • wherein, Vd represented the volume of donor compartment (0.1 mL on the apical side and 0.25 mL on the basolateral side); C and Cr represented the final concentrations of the transported compound in the donor and receptor compartment, respectively; Cc represented the compound concentration in cell lysate; Vc represented the volume of insert well (which was 0.1 mL in this experiment).

NUGC-3 cells = assay: NUGC-3 cell proliferation assay (CTG); assay type: cell-based, human; conditions: for Compound GI50 (nM)/Reference compound GI50 (nM): multiple ratio of GI50 of the compound to the reference compound; for GI50: Homo sapiens, NUGC-3, 144 h, 6 days, CTG
Procedure, shortened: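 NUGC-3 cells (250/well), plated overnight, were exposed 6 days at 37° C to compound, 10 doses of 1:3 dilutions from 10 μM top final. Viability by CellTiter-Glo luminescence; inhibition relative to 0.1% DMSO and blank, GI50 from variable-slope nonlinear fit.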

p53 Y220C [1] = biological target: T1, p53 Y220C (Homo sapiens, UniProt P04637, Y220C); assay: DNA binding test (HTRF): binding of P53Y220C protein to DNA; assay type: biochemical; conditions: multiple ratio of EC50 of the compound to the reference compound, DNA binding test
T1 construct: a truncated mutant containing only amino acids 94-312 of p53; made in house; host or cells: E. coli

BxPC-3 cells = assay: BxPC-3 cell proliferation test (CTG); assay type: cell-based; conditions: Homo sapiens, 144 h, 6 days
Protocol: To detect the inhibitory effects of the aforementioned compounds on the proliferation ability of BxPC-3 cells, 125 BxPC-3 cells (ATCC®CRL-1687) were seeded into a 384-well plate (Corning 3765), 35 μL per well, and placed in a constant temperature incubator at 37° C. and 5% CO2 overnight. Then, 40 nL of the compound was added to the 384-well plate using an Echo 655 Liquid Handler, with a maximum final concentration of 10 μM, 1:3 serial dilution, and in a total of 10 doses. Incubation was performed at 37° C., 5% CO2 for 6 days. The plate was taken out from the incubator and equilibrated at room temperature for 10 minutes. 20 μL of CTG (Promage G7572) was added to each well of the plate according to the platemap. The plate was centrifuged at 1000 rpm for 1 minute. The lysis of cells was induced by mixing on a shaker for 2 minutes. The plate was centrifuged at 1000 rpm for 1 minute. Incubation was performed at room temperature for 10 minutes to stabilize luminescence signals. Luminescence values were recorded by Envision (PerkinElmer 2105-0020). GraphPad 9.0 was used to fit the inhibition rate and compound concentration into a nonlinear regression curve (dose response-variable slope) to calculate GI50, inhibition rate={1−(A−B)/(C−B)}*100%, A=signal value of compound; B=average signal of blank control; C=average signal of negative control (wherein the negative control was 0.1% DMSO).

[2] = Liver microsome stability test, human (HLM); assay type: in vitro ADME; conditions: human liver microsomes, NADPH; read-out: T1/2 (min) Human
Protocol: (§1) The 10 mM test compound/ketanserin (Energy Chemical, Cat. No. E020711) stock solution was diluted with acetonitrile to 0.5 mM compound/reference compound. The frozen 100 mM NADPH (MCE, Cat. No. HYF003/CS-4998) was diluted with phosphate buffer solution to a concentration of 6 mM; 20 mg/mL HLM (BioIVT, Cat. No. X008067) or MLM (BioIVT, Cat. No. M00501) was diluted with phosphate buffer solution to a concentration of 0.75 mg/ml, and added to a 96-round well plate, respectively, and shaken evenly on an oscillator at 600 rpm. The above oscillated samples were pipetted 3 times with an electric pipettor and dispensed into a new 96-well plate (containing NADPH group (n=2), NADPH-free group was added at 0 and 45 min (n=1)), and there were a total of 5 groups of 0, 5, 15, 30 and 45 min, respectively. After pre-incubation of the 5 groups of samples at 37° C. for 5 min, glacial acetonitrile was quickly added to the 0 min group for precipitation, and after rapid vortexing, K-Buffer or NADPH was added with an electric pipettor. The remaining groups were sequentially added with 6 mM NADPH to start the reaction in the order of 45, 30, 15 and 5 min samples, and K-Buffer solution was added to the NADPH-free group. After mixing at 1000 rpm in an oscillating mixer for 10 s, they were continuously incubated at 37° C. for the corresponding time. The reaction was terminated by quickly adding glacial acetonitrile internal standard using an electric pipettor; after vortexing at 900 rpm for 10 seconds, heat sealing was performed, oscillation was performed on an oscillator for 10 minutes, centrifugation was performed at 4000 rpm for 50 minutes, the supernatant was collected and diluted with pure water, and the test compound and the reference compound were quantified by LC-MS/MS analysis.

p53 Y220C [3] = biological target: T2, p53 Y220C (Homo sapiens, UniProt P04637, P309S/R273H/Y220C); assay: DNA binding test (HTRF): binding of P53Y220C protein to DNA; assay type: biochemical; conditions: HTRF, activation of p53 Y220C (aa 94-312) binding to biotin DNA
T2 construct: a truncated mutant containing only amino acids 94-312 of p53; made in house; host or cells: E. coli

[4] = Liver microsome stability test, mouse (MLM); assay type: in vitro ADME; conditions: mouse liver microsomes, NADPH; read-out: T1/2 (min) Mouse
Protocol: as §1

[5] = Pharmacokinetic test in mice; assay type: in vivo; conditions: male, ICR, mouse, plasma
Protocol: ICR male mice (15 to 35 g, 5 to 10 weeks old, Shanghai Xipuer-Bikai Experimental Animal Co., Ltd.) were selected as test animals in this study. The LC-MS/MS method was used to quantitatively determine drug concentrations in the plasma of mice at different time points after intravenous injection or oral gavage administration of the test compound to evaluate the pharmacokinetic characteristics of the compound in mice. The clear solution of the test compound was injected into ICR mice via the tail vein (without fasting, solvent: 40% hydroxypropyl-β-cyclodextrin) and administered to ICR mice by oral gavage (fasting for 10 to 14 hours, free drinking water, solvent: 0.2% hydroxypropyl cellulose, 0.5% Tween 80). For intravenous administration, blood was collected from the submandibular venous plexus at 0.033, 0.083, 0.25, 0.5, 1, 2, 4, 8, and 24 hours after administration, placed in an anticoagulant tube with EDTA-K2 (Jiangsu Kangjian Medical Supplies Co., Ltd.), mixed, and centrifuged at 2-8° C., 6800 g for 6 minutes to obtain plasma; for oral gavage administration, blood was collected from the submandibular venous plexus at 0.083, 0.25, 0.5, 1, 2, 4, 6, 8, and 24 hours after administration, placed in an anticoagulant tube with EDTA-K2 (Jiangsu Kangjian Medical Supplies Co., Ltd.), mixed, and centrifuged at 2-8° C., 6800 g for 6 minutes to obtain plasma. The blood drug concentration was determined by LC-MS/MS, and the relevant pharmacokinetic parameters were calculated by the non-compartmental linear logarithmic trapezoidal method using Phoenix WinNonlin™ Version 7.0 (Pharsight, USA) pharmacokinetic software.

CYP 3A4 = biological target: T3, CYP 3A4 (Homo sapiens, UniProt P08684); assay: CYP 3A4 time-dependent inhibition test; assay type: in vitro ADME; conditions: midazolam substrate
T3 construct: purchased BioIVT X008067
T3 sequence (P08684 whole entry): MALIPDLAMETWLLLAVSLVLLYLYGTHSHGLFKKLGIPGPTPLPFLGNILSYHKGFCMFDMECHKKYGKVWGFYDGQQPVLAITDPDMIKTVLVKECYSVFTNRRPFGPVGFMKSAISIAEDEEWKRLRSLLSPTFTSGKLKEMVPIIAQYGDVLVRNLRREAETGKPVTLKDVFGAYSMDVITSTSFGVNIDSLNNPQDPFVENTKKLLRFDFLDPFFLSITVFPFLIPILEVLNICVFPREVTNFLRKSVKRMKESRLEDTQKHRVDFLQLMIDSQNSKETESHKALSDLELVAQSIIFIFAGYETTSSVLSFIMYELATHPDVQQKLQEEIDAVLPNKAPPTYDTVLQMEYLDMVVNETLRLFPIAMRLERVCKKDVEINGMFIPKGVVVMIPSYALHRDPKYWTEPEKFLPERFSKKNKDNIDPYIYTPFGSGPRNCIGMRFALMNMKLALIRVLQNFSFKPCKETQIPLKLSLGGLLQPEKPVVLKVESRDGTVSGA
Protocol: CYP 3A4 and the test compound or mifepristone of various concentrations were added to a 96-deep well plate for pre-incubation. The plate was placed in a water bath and preheated at 37° C. for 5 min. For the 0 min pre-incubation samples, midazolam substrate was added to the incubation plate, then 10 mM NADPH solution was added, and the reaction was carried out in a 37° C. water bath for 5 min; for the 30 min pre-incubation samples with NADPH, 10 mM NADPH solution was added to the incubation plate, pre-incubated in a 37° C. water bath for 30 min, and then midazolam substrate was added and reacted in a 37° C. water bath for 5 min; for the 30 min pre-incubation samples without NADPH, the incubation plate was pre-incubated in a 37° C. water bath for 30 min, then midazolam substrate was added, 10 mM NADPH solution was added, and the reaction was carried out in a 37° C. water bath for 5 min. After the reaction was completed, the quenching solution (500 nM tolbutamide (Bide Pharmaceuticals, Cat. No. BD154332) and 10 nM terfenadine (Sigma, Cat. No. T96532)) were added to quench the reaction, and the plate was centrifuged at 3,220 g for 40 min at 4° C. The supernatant was pipetted into a new plate, the supernatant was diluted with pure water and mixed well, and the sample was analyzed using UPLC-MS/MS.

[6] = 0 min pre-incubation, read-out: IC50 (μM) 0 min
[7] = 30 min pre-incubation with NADPH, read-out: IC50 (μM) 30 min, with NADPH
[8] = 30 min pre-incubation without NADPH, read-out: IC50 (μM) 30 min, without NADPH

| Efflux Ratio (Caco-2 cells) | Papp A to B (Caco-2 cells; A to B) | Papp B to A (Caco-2 cells; B to A) | GI50 (BxPC-3 cells) | half-life [2] | EC50 (p53 Y220C [3]) | half-life [4] | AUC ([5]; 25 mg/kg, po 25 mpk) | Cmax ([5]; 25 mg/kg, po 25 mpk) | clearance ([5]; 2.5 mg/kg, iv 2.5 mpk) | IC50 (CYP 3A4; [6]) | IC50 (CYP 3A4; [7]) | IC50 (CYP 3A4; [8]) | Structure (SMILES) | Compound GI50 (nM)/Reference compound GI50 (nM) (NUGC-3 cells) | Compound EC50 (nM)/Reference compound EC50 (nM) (p53 Y220C [1]) | GI50 (NUGC-3 cells) |
| --- | --- | --- | --- | --- | --- | --- | --- | --- | --- | --- | --- | --- | --- | --- | --- | --- |
| 2.58 | 2.50 10^−6 cm/s | 6.43 10^−6 cm/s | – | – | – | – | – | – | – | – | – | – | COc1cc(S(C)(=O)=O)ccc1NCC#Cc1nc2c(NC3CC[C@@H](N4CC5(COC5)C4)C[C@@H]3F)cccn2c1CC(F)(F)F (stereo partly drawn) [Compound 48] | B (B: GI50 of the reference compound < GI50 of the compound ≤ 3.0 * GI50 of the reference compound) | B (B: EC50 of the reference compound<EC50 of the compound≤3.0*EC50 of the reference compound) | – |
| – | – | – | < 1000 nM | 65.3 min | < 100 nM | 16.9 min | – | – | – | – | – | – | CNC(=O)c1ccc(NCC#Cc2cc3c(NC4CCC(N5CC6(COC6)C5)CC4F)cccn3c2CC(F)(F)F)c(OC)c1 (single isomer, unassigned) [Compound 65d] | B (B: GI50 of the reference compound < GI50 of the compound ≤ 3.0 * GI50 of the reference compound) | B (B: EC50 of the reference compound<EC50 of the compound≤3.0*EC50 of the reference compound) | < 1000 nM |
| – | – | – | – | – | < 100 nM | – | 59700 ng·h/mL | 13100 ng/mL | 11 mL/min/kg | 5.95 µM | 1.91 µM | 6.65 µM | [2H]C([2H])([2H])NC(=O)c1ccc(NCC#Cc2nc3c(NC4CCC(N5CCOCC5)CC4F)cccn3c2CC(F)(F)F)c(OC([2H])([2H])[2H])c1 (single isomer, unassigned) [Compound 70d] | A (A: GI50 of the compound ≤ GI50 of the reference compound) | A (A: EC50 of the compound≤EC50 of the reference compound) | < 1000 nM |
| – | – | – | – | 24.9 min | – | 17.1 min | – | – | – | 3.24 µM | 0.58 µM | 2.55 µM | CNC(=O)c1ccc(NCC#Cc2cc3c(N[C@@H]4CCN(C)C[C@@H]4F)cccc3n2CC(F)(F)F)c(OC)c1 [Reference compound, reference compound] | – | – | – |
